{
  "source": "patent EP3046573B1",
  "about": "“AMYLIN ANALOGUES” (Zealand Pharma A/S, priority 2013, dated 2015)",
  "key": {"[1]": {"biological_target": "T1, human calcitonin receptor (hCTR2) (Homo sapiens, UniProt P30988)", "T1 construct": "expressed in transfected cells", "T1 sequence (P30988 25-474)": "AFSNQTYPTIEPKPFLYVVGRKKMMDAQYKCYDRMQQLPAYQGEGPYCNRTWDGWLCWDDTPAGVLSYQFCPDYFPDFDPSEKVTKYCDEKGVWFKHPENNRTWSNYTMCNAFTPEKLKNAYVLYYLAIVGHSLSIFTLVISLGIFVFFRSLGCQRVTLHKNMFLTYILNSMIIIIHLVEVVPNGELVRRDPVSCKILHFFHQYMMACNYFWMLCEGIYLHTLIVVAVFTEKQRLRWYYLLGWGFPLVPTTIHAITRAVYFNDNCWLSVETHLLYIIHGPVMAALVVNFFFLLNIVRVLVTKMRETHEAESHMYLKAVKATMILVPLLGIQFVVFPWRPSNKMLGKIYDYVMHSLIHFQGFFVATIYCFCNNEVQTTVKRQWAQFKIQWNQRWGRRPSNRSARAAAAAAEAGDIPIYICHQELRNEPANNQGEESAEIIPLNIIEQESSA", "test": "hCTR2 assay: induction of cAMP (AlphaScreen cAMP Assay kit) in COS7 cells expressing hCTR2", "format": "cell-based", "conditions": "cAMP induction in COS7 cells expressing hCTR2; average of a minimum of 3 determinations; read-out: hCTR2 EC50", "in_short": "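Cells were seeded one day ahead, washed, then exposed to rising peptide concentrations for 15 min at 37° C in the presence of 100 µM IBMX. After lysis for 10 min at room temperature, cAMP was quantified by AlphaScreen and EC50 values derived by 4PL fitting.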"}, "[2]": {"biological_target": "T2, human amylin receptor 3 (hAMYR3) consisting of hCTR2 co-expressed with human Receptor Activity Modifying Protein 3 (hRAMP3) (Homo sapiens, UniProt O60896+P30988)", "T2 construct": "expressed in transfected cells", "T2 sequence (P30988 25-474)": "T1 sequence (P30988 25-474)", "T2 sequence (O60896 24-148 partner)": "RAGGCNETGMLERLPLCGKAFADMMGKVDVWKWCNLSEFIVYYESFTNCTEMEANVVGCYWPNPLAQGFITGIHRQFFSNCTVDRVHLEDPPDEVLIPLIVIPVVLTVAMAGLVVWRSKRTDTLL", "test": "hAMYR3 assay: induction of cAMP (AlphaScreen cAMP Assay kit) in COS7 cells expressing hAMYR3", "format": "cell-based", "in_short": "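cAMP accumulation read by AlphaScreen in lysates of RAMP-naive COS7 cells stably transfected with hCTR2 plus hRAMP3. Cells exposed to peptide dilutions for 15 min, 37° C, with 100 µM IBMX; 4PL fitting gave EC50 and efficacy relative to pramlintide.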"}, "[3]": {"test": "Solubility assessment (turbidity absorbance at 325 nm)", "format": "physicochemical", "conditions": "stock 2 mg/ml diluted 1:1, ambient temperature (typically 25°C), n=1", "in_short": "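Turbidity read as absorbance at 325 nm (also 280 nm), single samples at ambient temperature (typically 25°C); ≤ 0.02 units counts as ≥ 1 mg/ml soluble. Samples made by 1:1 dilution of a 2 mg/ml acidic stock into 100 mM acetate, histidine or phosphate buffers, pH 4.0–7.5.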"}},
  "note": "Numbered stars: 1 amine (or outer) side, 2 acyl side, 3 side chain; on linkers, the order of the positions; unused ones are H or OH. Bridge positions count the residues as written; N and C are the ends. Peptide text beside a SMILES is read from it. * marks the point of attachment. C20 diacid = O=C(O)CCCCCCCCCCCCCCCCCCC(=O)*; γGlu = O=C(O)[C@H](CCC(=O)[*:2])N[*:1]",
  "data": [
    {"smiles": "CC[C@H](C)[C@H](NC(=O)[C@@H]1CCCN1C(=O)CNC(=O)[C@H](Cc1ccccc1)NC(=O)[C@H](CC(N)=O)NC(=O)[C@H](CC(N)=O)NC(=O)[C@H](CO)NC(=O)[C@H](CO)NC(=O)[C@H](Cc1c[nH]cn1)NC(=O)[C@H](Cc1c[nH]cn1)NC(=O)[C@H](CC(C)C)NC(=O)[C@H](Cc1ccccc1)NC(=O)[C@H](CCC(=O)O)NC(=O)[C@H](C)NC(=O)[C@H](CC(C)C)NC(=O)[C@H](CCCNC(=N)N)NC(=O)[C@H](CCC(N)=O)NC(=O)[C@@H](NC(=O)[C@H](C)NC(=O)[C@@H]1CSSC[C@H](NC(=O)[C@H](CCCNC(=N)N)NC(=O)CC[C@H](NC(=O)CCCCCCCCCCCCCCCCCCC(=O)O)C(=O)O)C(=O)N[C@@H](CC(N)=O)C(=O)N[C@@H]([C@@H](C)O)C(=O)N[C@@H](C)C(=O)N[C@@H]([C@@H](C)O)C(=O)N1)[C@@H](C)O)C(=O)N[C@@H](CC(C)C)C(=O)N1CCC[C@H]1C(=O)N1CCC[C@H]1C(=O)N[C@H](C(=O)N[C@@H](CC(N)=O)C(=O)N[C@H](C(=O)NCC(=O)N[C@@H](CO)C(=O)N[C@@H](CC(N)=O)C(=O)N[C@H](C(=O)N1CCC[C@H]1C(N)=O)[C@@H](C)O)C(C)C)[C@@H](C)O", "note": "[NN96, N-α-[(S)-4-carboxy-4-(19-carboxynonadecanoylamino)butyryl]-[Arg1,Glu14,His17,Pro37]-pramlintide, reference compound] ({C20 diacid-γGlu}-RCNTATCATQRLAEFLHHSSNNFGPILPPTNVGSNTP-NH2; disulfide 2-7)", "values": [
      {"measurement": "EC50", "setting": "[1]", "result": 0.089, "unit": "nM"},
      {"measurement": "EC50", "setting": "[2]", "result": 0.15, "unit": "nM"},
      {"measurement": "Solubility, Acetate buffer pH 4", "setting": "[3]; 100 mM acetate buffer pH 4.0", "result": "SS (SS indicates solubility ≥ 1mg/ml)"},
      {"measurement": "Solubility, Acetate buffer pH 5", "setting": "[3]; 100 mM acetate buffer pH 5.0", "result": "SS (SS indicates solubility ≥ 1mg/ml)"},
      {"measurement": "Solubility, Histidine buffer pH 6", "setting": "[3]; 100 mM histidine buffer pH 6.0", "result": "SS (SS indicates solubility ≥ 1mg/ml)"},
      {"measurement": "Solubility, Histidine buffer pH 7", "setting": "[3]; 100 mM histidine buffer pH 7.0", "result": "SS (SS indicates solubility ≥ 1mg/ml)"},
      {"measurement": "Solubility, Phosphate buffer pH 6", "setting": "[3]; 100 mM phosphate buffer pH 6.0", "result": "SS (SS indicates solubility ≥ 1mg/ml)"},
      {"measurement": "Solubility, Phosphate buffer pH 7", "setting": "[3]; 100 mM phosphate buffer pH 7.0", "result": "SS (SS indicates solubility ≥ 1mg/ml)"},
      {"measurement": "Solubility, Phosphate buffer pH 7.5", "setting": "[3]; 100 mM phosphate buffer pH7.5", "result": "SS (SS indicates solubility ≥ 1mg/ml)"}
    ]}
  ]
}
